# According to US12435044B2, “Pyridazinone herbicides and pyridazinone intermediates used to prepare a herbicide” (FMC Corporation, priority 2018, dated 2025):
# How the values were obtained:
# Assay type in all cases: in vivo
# [1] = test system: pigweed (Amaranthus retroflexus); assay: Test C pre-/postemergence greenhouse test; details: scale 0 to 100
# How it was run: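 Visual 0–100 rating (0 = no effect, 100 = complete control) against controls, 13 to 21 d after treatment in greenhouse. Preemergence: seeds in silt loam soil. Postemergence: plants at 1- to 4-leaf stage (2 to 18 cm) in peat-based medium; compounds in surfactant-containing solvent mixture.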
# [2] = test system: soybean (GLXMA; Glycine max, cv. Pioneer 35T58); assay: Test G preemergence, mixtures of Cpd. No. 20 with (b15C1)
# Excerpt: (§1) This test evaluated the effect of mixtures of Cpd. No. 20 with (b15C1) on several plant species. Seeds of plant species selected from corn (ZEAMD; Zea mays, cv. ‘Pioneer 1184’), soybean (GLXMA; Glycine max, cv. Pioneer 35T58), giant foxtail (SETFA; Setaria faberi), barnyardgrass (ECHCG; Echinochloa crus-galli), large crabgrass (DIGSA; Digitaria sanguinalis), palmer amaranth (AMAPA; Amaranthus palmeri), common waterhemp (AMATU; Amaranthus rudis), and common ragweed (AMBEL; Ambrosia artemisiifolia) were planted in pots containing Tama Silt Loam soil and treated preemergence with a directed soil spray using test chemicals formulated in a non-phytotoxic solvent mixture which included a surfactant.
# (§2) Treated plants and untreated controls were maintained in a greenhouse for approximately 21 d, after which time all treated plants were compared to untreated controls and visually evaluated for injury. Plant response ratings, summarized in Table G, are based on a 0 to 100 scale where 0 is no effect and 100 is complete control. A dash (-) response means no test result. Test results are presented as a mean of 4 reps.
# [3] = test system: corn (ZEAMD; Zea mays, cv. ‘Pioneer 1184’); assay: as above
# Excerpt: as §1, §2
# [4] = test system: palmer amaranth (AMAPA; Amaranthus palmeri); assay: as above
# Excerpt: as §1, §2
# [5] = test system: giant foxtail (SETFA; Setaria faberi); assay: as above
# Excerpt: as §1, §2
# [6] = test system: large crabgrass (DIGSA; Digitaria sanguinalis); assay: as above
# Excerpt: as §1, §2
# [7] = test system: sedge, umbrella (small-flower umbrella sedge, Cyperus difformis); assay: Test F flooded paddy test; details: Flood, after 21 d
# Excerpt: (§3) Three plastic pots (ca. 16-cm diameter) per rate were partially filled with sterilized Tama silt loam soil comprising a 35:50:15 ratio of sand, silt and clay and 2.6% organic matter. Separate plantings for each of the three pots were as follows. Seeds from the U.S. of monochoria (Monochoria vaginalis), sedge, umbrella (small-flower umbrella sedge, Cyperus difformis) and redstem (purple redstem, Ammannia coccinea), were planted into one 16-cm pot for each rate. Seeds from the U.S. of rice flatsedge (Cyperus iria), sprangletop, Brdd. (bearded sprangletop, Leptochloa fascicularis), one stand of 9 or 10 water seeded rice seedlings (Rice, W. S. Jap, Oryza sativa cv. ‘Japonica-M202’ or Rice, W. S. Ind, ‘Indica’), and two stands of 3 or 4 transplanted rice seedlings (Oryza sativa cv. ‘Japonica-M202’) were planted into one 16-cm pot for each rate. Seeds from the U.S. of barnyardgrass (Echinochloa crus-galli), and late watergrass (Echinochloa oryzicola) were planted into one 16-cm pot for each rate.
# (§4) Plantings were sequential so that crop and weed species were at the 2.0 to 2.5-leaf stage at time of treatment.
# (§5) Potted plants were grown in a greenhouse with day/night temperature settings of 30/27° C., and supplemental balanced lighting was provided to maintain a 16-hour photoperiod. Test pots were maintained in the greenhouse until test completion.
# (§6) At time of treatment, test pots were flooded to 3 cm above the soil surface, treated by application of test compounds directly to the paddy water, and then maintained at that water depth for the duration of the test. Effects of treatments on rice and weeds were visually evaluated by comparison to untreated controls after 21 d. Plant response ratings, summarized in Table F, are based on a scale of 0 to 100 where 0 is no effect and 100 is complete control. A dash (-) response means no test result.
# [8] = test system: redstem (purple redstem, Ammannia coccinea); assay: Test F flooded paddy test; details: Flood, after 21 d
# Excerpt: as §3, §4, §5, §6
# [9] = test system: rice flatsedge (Cyperus iria); assay: Test F flooded paddy test; details: Flood, after 21 d
# Excerpt: as §3, §4, §5, §6
# [10] = test system: sprangletop, Brdd. (bearded sprangletop, Leptochloa fascicularis); assay: Test F flooded paddy test; details: Flood, after 21 d
# Excerpt: as §3, §4, §5, §6
compound,measurement,setting,value
"Cc1ccc2ccc(C)c(-c3c(O)c(Cl)nn(C)c3=O)c2c1 [Cpd. No. 20, 6-chloro-4-(2,7-dimethyl-1-naphthalenyl)-5-hydroxy-2-methyl-3(2H)-pyridazinone]","Plant response rating, Pigweed","[1]; Postemergence, 16 g ai/ha",90
same,"Plant response rating, Pigweed","[1]; Postemergence, 31 g ai/ha",95
same,"Plant response rating, Pigweed","[1]; Postemergence, 62 g ai/ha",95
same,"Plant response rating, Pigweed","[1]; Postemergence, 125 g ai/ha",98
same,"Plant response rating, Pigweed","[1]; Preemergence, 31 g ai/ha",100
same,"Plant response rating, Pigweed","[1]; Preemergence, 61 g ai/ha",100
same,"Plant response rating, Pigweed","[1]; Preemergence, 62 g ai/ha",100
same,"Plant response rating, Pigweed","[1]; Preemergence, 125 g ai/ha",100
same,Plant response rating (0 to 100 scale),[2]; Cpd. No. 20 16 g a.i./ha alone,0
same,Plant response rating (0 to 100 scale),[2]; Cpd. No. 20 31 g a.i./ha alone,18
same,Plant response rating (0 to 100 scale),[2]; Cpd. No. 20 62 g a.i./ha alone,24
same,Plant response rating (0 to 100 scale),[3]; Cpd. No. 20 16 g a.i./ha alone,0
same,Plant response rating (0 to 100 scale),[3]; Cpd. No. 20 31 g a.i./ha alone,0
same,Plant response rating (0 to 100 scale),[3]; Cpd. No. 20 62 g a.i./ha alone,0
same,Plant response rating (0 to 100 scale),[4]; Cpd. No. 20 16 g a.i./ha alone,73
same,Plant response rating (0 to 100 scale),[4]; Cpd. No. 20 31 g a.i./ha alone,70
same,Plant response rating (0 to 100 scale),[4]; Cpd. No. 20 62 g a.i./ha alone,78
same,Plant response rating (0 to 100 scale),[5]; Cpd. No. 20 16 g a.i./ha alone,66
same,Plant response rating (0 to 100 scale),[5]; Cpd. No. 20 31 g a.i./ha alone,88
same,Plant response rating (0 to 100 scale),[5]; Cpd. No. 20 62 g a.i./ha alone,74
same,Plant response rating (0 to 100 scale),[6]; Cpd. No. 20 16 g a.i./ha alone,9
same,Plant response rating (0 to 100 scale),[6]; Cpd. No. 20 31 g a.i./ha alone,11
same,Plant response rating (0 to 100 scale),[6]; Cpd. No. 20 62 g a.i./ha alone,25
same,Plant response rating (0 to 100 scale),[7]; 31 g ai/ha,0
same,Plant response rating (0 to 100 scale),[7]; 62 g ai/ha,60
same,Plant response rating (0 to 100 scale),[7]; 125 g ai/ha,95
same,Plant response rating (0 to 100 scale),[7]; 250 g ai/ha,100
same,Plant response rating (0 to 100 scale),[8]; 31 g ai/ha,0
same,Plant response rating (0 to 100 scale),[8]; 62 g ai/ha,0
same,Plant response rating (0 to 100 scale),[8]; 125 g ai/ha,92
same,Plant response rating (0 to 100 scale),[8]; 250 g ai/ha,99
same,Plant response rating (0 to 100 scale),[9]; 31 g ai/ha,70
same,Plant response rating (0 to 100 scale),[9]; 62 g ai/ha,85
same,Plant response rating (0 to 100 scale),[9]; 125 g ai/ha,97
same,Plant response rating (0 to 100 scale),[9]; 250 g ai/ha,100
Cc1cc(Cl)c2ccccc2c1-c1c(O)c(Cl)nn(C)c1=O [Cpd. No. 65],Plant response rating (0 to 100 scale),[10]; 64 g ai/ha,98
same,Plant response rating (0 to 100 scale),[10]; 125 g ai/ha,100
